Where a name gives a salt, the structure may show the parent alone.
Key:
[1] = in vivo; cited from earlier work
[2] = exemplary conventional formulation; cited from earlier work
[3] = ICH photostability testing of oxymetazoline HCl solutions (quartz container, twice ICH exposure); assay type: physicochemical; conditions: for drug degraded after UV light exposure: McIlvaine buffer pH=6
Protocol: 0.05% (w/v) oxymetazoline HCl solutions with pH ranging from 4 to 6 were prepared using McIlvaine buffer systems (Solutions I-III). At each pH level, 0.05% oxymetazoline HCl solutions containing either Povidone 29-32 (approximately 3% w/v) or PEG 1450 (approximately 5% w/v) were also made ([…]).
Example embodiments were tested for photostability according to methods described in ICH Harmonized Tripartite Guidelines Stability Testing: Photostability Testing of New Drug Substances and Products. Each sample for photostability studies was placed in an enclosed quartz container and exposed to twice the exposure required by ICH photostability guideline (total exposure of 2.4 million lux hours and an integrated near UV energy of 400 watt hours/square meter).
All of the observed oxymetazoline HCl degradation peaks were calculated and presented in percentage.

CN1CCC(=C2c3ccccc3CCc3cccnc32)CC1 [Azatadine]
elimination half-life [1]: 9 to 12 h

CCOC(=O)N1CCC(=C2c3ccc(Cl)cc3CCc3cccnc32)CC1 [loratadine]
antihistaminic effect lasts [2]: > 24 h

Cc1cc(C(C)(C)C)c(O)c(C)c1CC1=NCCN1 [oxymetazoline HCl, 6-tert-butyl-3-(2-imidazolin-2-ylmethyl)-2,4-dimentylphenol hydrochloride]
drug degraded after UV light exposure ([3]; 24 hours of UV light exposure): roughly 9%
drug degraded after UV light exposure ([3]; 40 hours of UV light exposure): ~72%
light sensitivity ([3]; aqueous solution): light sensitive
increase in the total degradation on incorporating PEG 1450 ([3]; pH 5, T=40 hours, PEG 1450 approximately 5% w/v): roughly 4 fold
increase in the total photodegradation in presence of Povidone K29-32 ([3]; pH=6, T=40 hours, Povidone K29-32 approximately 3% w/v): about 21%

Reference: patent US20090281156A1, “ENHANCING PHOTOSTABILIZATION OF OXYMETAZOLINE” (Schering-Plough Healthcare Products, Inc,, priority 2007, published 2009)
